In patent US10233426B2, “Method for inducing cardiac differentiation of pluripotent stem cell with low-molecular compounds” (KYOTO UNIVERSITY, priority 2014, dated 2019):

Tested on: monkey ES cell line transfected with an αMHC promoter-driven GFP gene
Experiment: Chemical screening: GFP fluorometry for cardiac differentiation of monkey ES cells
Type: cell-based, cynomolgus monkey
Conditions: GFP fluorometry day 9
Description: Pluripotent stem cells were cultured in culture media to which the test compounds were added in different concentrations (0.3 μM, 1 μM, 3 μM and 10 μM) in early phase and late phase of differentiation of the cells. Cells from the culture were subjected to GFP fluorometry in accordance with the cardiac differentiation protocol shown in FIG. 1a. Besides the test compounds, 10 μM KY02111 was included in the culture media for the late phase differentiation. The intensity of GFP fluorescence determined in the cells from the control culture, which was cultured with no test compound other than KY02111, was assigned to one.
The scheme of chemical screening is illustrated in FIG. 1a. Compounds were screened for the ability of increasing GFP fluorescence compared with the control (KY02111 alone) using a monkey ES cell line transfected with an αMHC promoter-driven GFP gene (Minami et al., Cell Reports 2, 1448-1460, 2012, which is incorporated herein by reference). The ES cell line was derived from a monkey ES cell line (cynomolgus monkey CMK6.4) by transfecting the cells with a vector which expresses green fluorescent protein (GFP) under control by a promoter of α-MHC gene (a marker of cardiac differentiation). The cells were plated at 4.0×10^5 cells per well in 6 well plates (Asahi Glass/5816-006: Ezview culture plates) and cultured for nine days in an IMDM-based medium for cardiac differentiation (200 ml IMDM medium (Sigma 13390), with 50 ml calf serum (GIBCO 10099-141), 2.5 ml MEM non-essential amino acid solution (Sigma M7145), 2.5 ml penicillin-streptomycin ([…]), 2.5 ml 200 mM L-glutamine, 2 ul 2-mercaptoethanol (Sigma M7522), and 255 ul 5N NaOH). Each test compound was added to the medium at different concentrations in the early phase (day 0 to day 3) and the late phase (day 4 to day 7) of cardiac differentiation. Cells obtained from the culture on day 9 were subjected to GFP fluorometry with a Metamorph imaging system. […]

[1] = test compound 0.3 μM in Early phase (day 0 to day 3), 10 μM KY02111 in late phase
[2] = test compound 0.3 μM in Late phase (day 4 to day 7) with 10 μM KY02111
[3] = test compound 1 μM in Early phase (day 0 to day 3), 10 μM KY02111 in late phase
[4] = test compound 1 μM in Late phase (day 4 to day 7) with 10 μM KY02111
[5] = test compound 3 μM in Early phase (day 0 to day 3), 10 μM KY02111 in late phase
[6] = test compound 3 μM in Late phase (day 4 to day 7) with 10 μM KY02111
[7] = test compound 10 μM in Early phase (day 0 to day 3), 10 μM KY02111 in late phase
[8] = test compound 10 μM in Late phase (day 4 to day 7) with 10 μM KY02111

Compound	intensity of GFP fluorescence relative to control culture (KY02111 only, assigned to one) [1]	intensity of GFP fluorescence relative to control culture (KY02111 only, assigned to one) [2]	intensity of GFP fluorescence relative to control culture (KY02111 only, assigned to one) [3]	intensity of GFP fluorescence relative to control culture (KY02111 only, assigned to one) [4]	intensity of GFP fluorescence relative to control culture (KY02111 only, assigned to one) [5]	intensity of GFP fluorescence relative to control culture (KY02111 only, assigned to one) [6]	intensity of GFP fluorescence relative to control culture (KY02111 only, assigned to one) [7]	intensity of GFP fluorescence relative to control culture (KY02111 only, assigned to one) [8]
NC(=O)c1ccc(-c2nc(-c3ccccn3)c(-c3ccc4c(c3)OCO4)[nH]2)cc1 [5B431542]	0.61	1.2	0.1	1.52	0	1.44	0	1.58
N#C/C(=C/c1ccc(O)c(O)c1)C(=O)NCc1ccccc1 [AG490]	1.5	0.92	0.59	1	0.79	1.1	0.72	1.33
O=C1NC(=O)/C(=C\c2ccc3nccnc3c2)S1 [AS605240]	0.65	1.31	0.84	0.9	0.32	1.22	0	0.55
O=c1[nH]c2ccccc2n1C1CCN(Cc2ccc(-c3nc4cc5[nH]cnc5cc4nc3-c3ccccc3)cc2)CC1 [Akt inhibitor 8]	1.2	1.11	0.96	1.57	0.11	1.33	0	1.11
CNC(=O)c1ccccc1Sc1ccc2c(/C=C/c3ccccn3)n[nH]c2c1 [Axitinib]	0.64	0.95	0.02	0.25	0	0.05	0	0
Cc1ccc(-n2nc(C(C)(C)C)cc2NC(=O)Nc2ccc(OCCN3CCOCC3)c3ccccc23)cc1 [BIRB796]	1.2	1.05	0.9	0.81	0.95	0.55	0.08	0.29
CC(C)(O)/C=C/C(=O)[C@](C)(O)[C@H]1[C@H](O)C[C@@]2(C)[C@@H]3CC=C4[C@@H](C=C(O)C(=O)C4(C)C)[C@]3(C)C(=O)C[C@]12C [Cucurbitaonl]	0.11	1.62	0	0	0	0	0	0
c1cc(-c2cnn3cc(-c4ccc(OCCN5CCCCC5)cc4)cnc23)ccn1 [Dorsomorphin]	0.13	0.96	0.03	1.67	0	1.22	0	0.89
COc1ccc2c(c1)c(C1=C(c3c[nH]c4ccccc34)C(=O)NC1=O)cn2CCCN(C)C [Go6983]	1.1	1.12	0.98	0.62	2.31	0.45	2.12	0.13
CC(C)(C)c1ccc(S(=O)(=O)Nc2ccc(-n3ccnc3)cc2)cc1 [ISCK03]	0.08	1.23	0	0.8	0	0.79	0	0.88
